The numbers were not newly measured in publication PMC10005815 (Journal of Medicinal Chemistry, 2023), which cites them from elsewhere.

What is called EC50 is the concentration that produces a half-maximal response.

This data set relates to SARS-CoV-2.

Like-named read-outs stand apart in the source and are kept apart here. Bounds are passed on as bounds.

Turning to `N#C[C@]1(c2ccc3c(N)ncnn23)O[C@@H](CO)[C@H](O)[C@@H]1O` [GS-441524], the “Increase of EC50 (resistance selection)” value was 2.7–10.4 fold.

On to `Cn1cnc(Cn2c(=O)[nH]/c(=N\c3cc4cn(C)nc4cc3Cl)n(Cc3cc(F)c(F)cc3F)c2=O)n1` [S-217622], for which the EC50 (read-out: SARS-CoV-2 VOCs EC50) is 290 to 500 nM. For the compound `COc1ccc(C(=O)Nc2cccc(C(F)(F)F)c2)cc1Nc1nc(-c2cccnc2)c2[nH]ccc2n1` [XMU-MP-7], the EC50 (read-out: EC50 against γ, δ, and o variants) is less than 6.9 nM.
